This note sets out measurements from patent US5854204A, “Aβ peptides that modulate β-amyloid aggregation” (priority 1996, dated 1998).

Like-named read-outs stand apart in the source and are kept apart here. Numbered stars: 1 amine (or outer) side, 2 acyl side, 3 side chain; on linkers, the order of the positions; unused ones are H or OH. Square brackets hold non-standard residues; d marks the D form. Ends that are not written are not given here. Peptide text beside a SMILES is read from it. * marks the point of attachment. Cholyl = C[C@H](CCC(=O)*)[C@H]1CC[C@H]2[C@@H]3[C@H](O)C[C@@H]4C[C@H](O)CC[C@]4(C)[C@H]3C[C@H](O)[C@]12C; X2 = O=C(C1(O)C[C@H](O)[C@@H](N[*:1])[C@H]([C@H](O)[C@H](O)CO)O1)[*:2]; Tyr(3-I) = N[C@@H](Cc1ccc(O)c(I)c1)C(=O)O

Experiment [1] deals with T1, Aβ1-40 (Homo sapiens, UniProt P05067).
T1 sequence (P05067 672-711): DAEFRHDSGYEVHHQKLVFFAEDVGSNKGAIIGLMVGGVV
From the text: (§1) The nucleation assay is employed to determine the ability of test compounds to alter (e.g. inhibit) the early events in formation of β-AP fibers from monomeric β-AP. […] The time delay before polymerization of β-AP monomer can be quantified as well as the extent of formation of insoluble fiber by light scattering (turbidity). Polymerization reaches equilibrium when the maximum turbidity reaches a plateau. […] The threshold of sensitivity for the measurement of turbidity is in the range of 15-20 μM β-AP. […] This assay can be performed using stirring or shaking to accelerate polymerization, thereby increasing the speed of the assay. Moreover the assay can be adapted to a 96-well plate format to screen multiple compounds.
(§2) HFIP-solubilized peptide is sonicated in a waterbath sonicator for 5 min at highest setting, then evaporated to dryness under a stream of argon. […] Test compounds are dissolved in DMSO at a 100× concentration. […] Ten microliters of the mixture is then added to the bottom of a well of a Corning Costar ultra low binding 96-well plate (Corning Costar, Cambridge Mass.; cat. No. 2500). […] The plate is then returned to the shaker and shaken continuously for 5 hours. Turbidity readings are taken at 15 minute intervals.
(§3) Accordingly a fold increase in lag time of 1.0 indicates no change in lag time, whereas numbers >1.0 indicate an increase in lag time. The "% inhibition of plateau", which is a measure of the ability of the compound to decrease the total amount of aggregation, refers to the reduction of the final turbidity in the presence of the test compound expressed as a percent of the control without the test compound.
The target of experiment [2] is T1, Aβ1-40. In words: biochemical. The settings on record: read-out: % Inucl'n (percent reduction in maximum turbidity).
From the text: as §1, §2, §3
The mark [3] stands for this setting: Table VI, unmodified peptides, 100 mole %.
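Note: Aβ nucleation assay tracking fiber polymerization from monomer by turbidity (light scattering), shaken continuously in 96-well plates, read every 15 min over 5 h, compared with compound-free control.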

In the case of `CC[C@H](C)[C@H](NC(=O)[C@H](C)NC(=O)CNC(=O)[C@H](CCCCN)NC(=O)[C@H](CC(N)=O)NC(=O)[C@H](CO)NC(=O)[C@H](Cc1ccccc1)NC(=O)[C@H](Cc1ccccc1)NC(=O)[C@@H](NC(=O)[C@H](CC(C)C)NC(=O)[C@H](CCCCN)NC(=O)[C@H](CCC(N)=O)NC(=O)[C@H](Cc1c[nH]cn1)NC(=O)[C@H](Cc1c[nH]cn1)NC(=O)[C@@H](NC(=O)[C@H](CCC(=O)O)NC(=O)[C@H](Cc1ccc(O)cc1)NC(=O)CNC(=O)[C@H](CO)NC(=O)[C@H](CC(=O)O)NC(=O)[C@H](Cc1c[nH]cn1)NC(=O)[C@H](CCCNC(=N)N)NC(=O)[C@H](Cc1ccccc1)NC(=O)[C@H](CCC(=O)O)NC(=O)[C@H](C)NC(=O)[C@@H](N)CC(=O)O)C(C)C)C(C)C)C(=O)N[C@H](C(=O)NCC(=O)N[C@@H](CC(C)C)C(=O)N[C@@H](CCSC)C(=O)N[C@H](C(=O)NCC(=O)NCC(=O)N[C@H](C(=O)N[C@H](C(=O)O)C(C)C)C(C)C)C(C)C)[C@@H](C)CC` [PPI-249, Aβ1-20, 26-40 (Δ21-25)], in experiment [1], the “% Inhibition of Plateau” value is ~ 0%. Besides, the “Fold Increase in Lag Time” value in experiment [1] (setting [3]) came to 2.37 fold. Turning to `CC[C@H](C)[C@H](NC(=O)[C@H](C)NC(=O)CNC(=O)[C@H](CCCCN)NC(=O)[C@H](CC(N)=O)NC(=O)[C@H](CO)NC(=O)CNC(=O)[C@@H](NC(=O)[C@H](CC(=O)O)NC(=O)[C@H](CCC(=O)O)NC(=O)[C@H](C)NC(=O)[C@H](CCC(N)=O)NC(=O)[C@H](Cc1c[nH]cn1)NC(=O)[C@H](Cc1c[nH]cn1)NC(=O)[C@@H](NC(=O)[C@H](CCC(=O)O)NC(=O)[C@H](Cc1ccc(O)cc1)NC(=O)CNC(=O)[C@H](CO)NC(=O)[C@H](CC(=O)O)NC(=O)[C@H](Cc1c[nH]cn1)NC(=O)[C@H](CCCNC(=N)N)NC(=O)[C@H](Cc1ccccc1)NC(=O)[C@H](CCC(=O)O)NC(=O)[C@H](C)NC(=O)[C@@H](N)CC(=O)O)C(C)C)C(C)C)C(=O)N[C@H](C(=O)NCC(=O)N[C@@H](CC(C)C)C(=O)N[C@@H](CCSC)C(=O)N[C@H](C(=O)NCC(=O)NCC(=O)N[C@H](C(=O)N[C@H](C(=O)O)C(C)C)C(C)C)C(C)C)[C@@H](C)CC` [PPI-250, Aβ1-15, 21-40 (Δ16-20)], the “% Inhibition of Plateau” value in experiment [1] was ~ 0%. Moreover, the “Fold Increase in Lag Time” value in experiment [1] (setting [3]) stood at 1.55 fold. For the compound `CC[C@H](C)[C@H](NC(=O)[C@H](C)NC(=O)CNC(=O)[C@H](CCCCN)NC(=O)[C@H](CC(N)=O)NC(=O)[C@H](CO)NC(=O)CNC(=O)[C@@H](NC(=O)[C@H](CC(=O)O)NC(=O)[C@H](CCC(=O)O)NC(=O)[C@H](C)NC(=O)[C@H](Cc1ccccc1)NC(=O)[C@H](Cc1ccccc1)NC(=O)[C@@H](NC(=O)[C@H](CC(C)C)NC(=O)[C@H](CCCCN)NC(=O)[C@H](Cc1ccc(O)cc1)NC(=O)CNC(=O)[C@H](CO)NC(=O)[C@H](CC(=O)O)NC(=O)[C@H](Cc1c[nH]cn1)NC(=O)[C@H](CCCNC(=N)N)NC(=O)[C@H](Cc1ccccc1)NC(=O)[C@H](CCC(=O)O)NC(=O)[C@H](C)NC(=O)[C@@H](N)CC(=O)O)C(C)C)C(C)C)C(=O)N[C@H](C(=O)NCC(=O)N[C@@H](CC(C)C)C(=O)N[C@@H](CCSC)C(=O)N[C@H](C(=O)NCC(=O)NCC(=O)N[C@H](C(=O)N[C@H](C(=O)O)C(C)C)C(C)C)C(C)C)[C@@H](C)CC` [PPI-251, Aβ1-10, 16-40 (Δ11-15)], the “% Inhibition of Plateau” value in experiment [1] is given as ~ 0%. Further, the “Fold Increase in Lag Time” value in experiment [1] (setting [3]) is reported as ~ 1.2 fold. In the case of `CC(C)C[C@H](NC(=O)[C@H](CCCCN)NC(=O)[C@H](CCC(N)=O)NC(=O)[C@H](Cc1c[nH]cn1)NC(=O)CC[C@@H](C)[C@H]1CC[C@H]2[C@@H]3[C@H](O)C[C@@H]4C[C@H](O)CC[C@]4(C)[C@H]3C[C@H](O)[C@]12C)C(=O)N[C@H](C(=O)N[C@@H](Cc1ccccc1)C(=O)N[C@@H](Cc1ccccc1)C(N)=O)C(C)C` [PPI-315] (Cholyl-HQKLVFF-NH2), the inhibition at 33 % in experiment [2] turned out to be 5%. Turning to `CC(=O)N[C@H]1[C@H]([C@H](O)[C@H](O)CO)OC(O)(C(=O)N[C@@H](Cc2c[nH]cn2)C(=O)N[C@@H](CCC(N)=O)C(=O)N[C@@H](CCCCN)C(=O)N[C@@H](CC(C)C)C(=O)N[C@H](C(=O)N[C@@H](Cc2ccccc2)C(=O)N[C@@H](Cc2ccccc2)C(N)=O)C(C)C)C[C@@H]1O` (stereo partly shown) [PPI-316] (Ac-[X2]HQKLVFF-NH2), in experiment [2], the inhibition at 100 % was -15%.

In the case of `CC(C)C[C@H](NC(=O)[C@H](CCCCN)NC(=O)[C@H](CCC(N)=O)NC(=O)[C@H](Cc1c[nH]cn1)NC(=O)[C@H](Cc1c[nH]cn1)NC(=O)[C@@H](NC(=O)[C@H](CCC(=O)O)NC(=O)[C@H](Cc1ccc(O)cc1)NC(=O)CNC(=O)[C@H](CO)NC(=O)[C@H](CC(=O)O)NC(=O)[C@H](Cc1c[nH]cn1)NC(=O)CC[C@@H](C)[C@H]1CC[C@H]2[C@@H]3[C@H](O)C[C@@H]4C[C@H](O)CC[C@]4(C)[C@H]3C[C@H](O)[C@]12C)C(C)C)C(=O)N[C@H](C(=O)N[C@@H](Cc1ccccc1)C(N)=O)C(C)C` [PPI-321] (Cholyl-HDSGYEVHHQKLVF-NH2), in experiment [1], the “inhibitory activity on Aβ aggregation” value is given as “loss of inhibitory activity”. The “Fold Increase in Lag Time” value in experiment [1] (Table III, 33 mole %) came out at 1.4 fold; in experiment [1] (Table IV, 100 mole %), 1.2 fold. Consider `CC(C)[C@H](NC(=O)[C@H](CCC(=O)O)NC(=O)[C@H](Cc1ccc(O)cc1)NC(=O)CNC(=O)[C@H](CO)NC(=O)[C@H](CC(=O)O)NC(=O)[C@H](Cc1c[nH]cn1)NC(=O)CC[C@@H](C)[C@H]1CC[C@H]2[C@@H]3[C@H](O)C[C@@H]4C[C@H](O)CC[C@]4(C)[C@H]3C[C@H](O)[C@]12C)C(=O)N[C@@H](Cc1c[nH]cn1)C(=O)N[C@@H](Cc1c[nH]cn1)C(N)=O` [PPI-331] (Cholyl-HDSGYEVHH-NH2), for which the “% Inhibition of Plateau” value in experiment [1] is 29%. Still for that read-out and setting: under `C[C@H](CCC(=O)N[C@@H](Cc1c[nH]cn1)C(=O)N[C@@H](CC(=O)O)C(=O)N[C@@H](CO)C(=O)NCC(=O)N[C@@H](Cc1ccc(O)cc1)C(N)=O)[C@H]1CC[C@H]2[C@@H]3[C@H](O)C[C@@H]4C[C@H](O)CC[C@]4(C)[C@H]3C[C@H](O)[C@]12C` [PPI-339] (Cholyl-HDSGY-NH2) stands 13%; under `CC(C)C[C@H](NC(=O)[C@H](CCCCN)NC(=O)[C@H](CCC(N)=O)NC(=O)[C@H](Cc1c[nH]cn1)NC(=O)[C@H](Cc1c[nH]cn1)NC(=O)[C@@H](NC(=O)CC[C@@H](C)[C@H]1CC[C@H]2[C@@H]3[C@H](O)C[C@@H]4C[C@H](O)CC[C@]4(C)[C@H]3C[C@H](O)[C@]12C)C(C)C)C(=O)N[C@H](C(=O)N[C@@H](Cc1ccccc1)C(=O)N[C@@H](Cc1ccccc1)C(=O)O)C(C)C` [PPI-346] (Cholyl-VHHQKLVFF-OH), ~ 0%; under `CC(C)C[C@H](NC(=O)[C@H](CCCCN)NC(=O)[C@H](CCC(N)=O)NC(=O)CC[C@@H](C)[C@H]1CC[C@H]2[C@@H]3[C@H](O)C[C@@H]4C[C@H](O)CC[C@]4(C)[C@H]3C[C@H](O)[C@]12C)C(=O)N[C@H](C(=O)N[C@@H](Cc1ccccc1)C(=O)O)C(C)C` [PPI-366] (Cholyl-QKLVF-OH), ~ 0%. Regarding `CC(C)C[C@H](NC(=O)CC[C@@H](C)[C@H]1CC[C@H]2[C@@H]3[C@H](O)C[C@@H]4C[C@H](O)CC[C@]4(C)[C@H]3C[C@H](O)[C@]12C)C(=O)N[C@H](C(=O)N[C@@H](Cc1ccccc1)C(=O)N[C@@H](C)C(=O)N[C@@H](C)C(=O)O)C(C)C` [PPI-391] (Cholyl-LVFAA-OH), the inhibition at 100 % in experiment [2] is 40%.

In the case of `CC(C)C[C@H](NC(=O)CC[C@@H](C)[C@H]1CC[C@H]2[C@@H]3[C@H](O)C[C@@H]4C[C@H](O)CC[C@]4(C)[C@H]3C[C@H](O)[C@]12C)C(=O)N[C@H](C(=O)N[C@@H](Cc1ccc(O)c(I)c1)C(=O)N[C@@H](Cc1ccccc1)C(=O)N[C@@H](C)C(=O)O)C(C)C` [PPI-396] (Cholyl-LV[Tyr(3-I)]FA-OH), in experiment [2], the inhibition at 100 % is 100%. Take `CC(C)C[C@H](NC(=O)CC[C@@H](C)[C@H]1CC[C@H]2[C@@H]3[C@H](O)C[C@@H]4C[C@H](O)CC[C@]4(C)[C@H]3C[C@H](O)[C@]12C)C(=O)N[C@H](C(=O)N[C@@H](Cc1ccccc1)C(=O)N[C@@H](Cc1ccc(O)c(I)c1)C(=O)N[C@@H](C)C(=O)O)C(C)C` [PPI-397] (Cholyl-LVF[Tyr(3-I)]A-OH): the inhibition at 100 % in experiment [2] was determined as 95%. In the case of `CC(C)[C@H](NC(=O)[C@H](C)NC(=O)CC[C@@H](C)[C@H]1CC[C@H]2[C@@H]3[C@H](O)C[C@@H]4C[C@H](O)CC[C@]4(C)[C@H]3C[C@H](O)[C@]12C)C(=O)N[C@@H](C)C(=O)N[C@@H](Cc1ccccc1)C(=O)N[C@@H](C)C(=O)O` [PPI-400] (Cholyl-AVAFA-OH), the inhibition at 100 % in experiment [2] was -15%.

Take `CC(C)C[C@H](NC(=O)CC[C@@H](C)[C@H]1CC[C@H]2[C@@H]3CC[C@@H]4C[C@H](O)CC[C@]4(C)[C@H]3C[C@H](O)[C@]12C)C(=O)N[C@H](C(=O)N[C@@H](Cc1ccccc1)C(=O)N[C@@H](Cc1ccccc1)C(=O)N[C@@H](C)C(=O)O)C(C)C` [PPI-424]: the “% Inucl'n (percent reduction in maximum turbidity)” value in experiment [1] is listed as -114%. As for `CC(C)C[C@@H](NC(=O)CC[C@@H](C)[C@H]1CC[C@H]2[C@@H]3[C@H](O)C[C@@H]4C[C@H](O)CC[C@]4(C)[C@H]3C[C@H](O)[C@]12C)C(=O)N[C@@H](C(=O)N[C@H](Cc1ccccc1)C(=O)N[C@H](Cc1ccccc1)C(=O)N[C@H](C)C(=O)O)C(C)C` [PPI-433], the inhibition at 100 % in experiment [2] worked out at 27%. For the compound `CC(C)C[C@H](NC(=O)OC(C)(C)C)C(=O)N[C@H](C(=O)N[C@@H](Cc1ccccc1)C(=O)N[C@@H](Cc1ccccc1)C(=O)N[C@@H](C)C(=O)O)C(C)C` [PPI-435], the “% Inucl'n (percent reduction in maximum turbidity)” value in experiment [1] was -5%. The “ΔLag (ratio of lag time with test compound to lag time of control)” value in experiment [1] (Table V, 100 mole % inhibitor relative to Aβ1-40) is on record as 3.0. Take AEDVGSNKGAIIGLM [PPI-229, Aβ21-35]: the “% Inhibition of Plateau” value in experiment [1] is given as ~ 0%. Moreover, the “Fold Increase in Lag Time” value in experiment [1] (setting [3]) is reported as ~ 1 fold. Take HDSGYEVHHQKLVFF [PPI-226, Aβ6-20]: the “% Inhibition of Plateau” value in experiment [1] came to 76%. Also, in experiment [1] (setting [3]), the “Fold Increase in Lag Time” value was 1.66 fold. The corresponding values for KLVFFAEDVGSNKGA [PPI-228, Aβ16-30] are 100% and > 4.5 fold. The matching figures for SNKGAIIGLMVGGVV [PPI-230, Aβ26-40]: ~ 0% and 0.8 fold.
